Test results published in publication PMC8523172, “Structure of mycobacterial CIII2CIV2 respiratory supercomplex bound to the tuberculosis drug candidate telacebec (Q203)” (eLife, 2021).

Legend:
Assay type in all cases: biochemical
[1] = biological target: T1, CIII2CIV2 supercomplex, subunit QcrB (QP site) (Mycolicibacterium smegmatis, UniProt I7FGS8+I7GD61); test: Clark-type electrode oxygen consumption, purified enzyme turnover ([…] substrate)
T1 construct: purified CIII2CIV2 supercomplex with 3×FLAG tag at the C terminus of QcrB; with QcrA (Rieske subunit) within CIII2CIV2

[2] = biological target: T1, CIII2CIV2 supercomplex, subunit QcrB (QP site); test: Clark-type electrode oxygen consumption, purified enzyme
[3] = biological target: T1, CIII2CIV2 supercomplex, subunit QcrB (QP site); test: oxygen consumption (DMWH2:O2 oxidoreductase) inhibition of purified enzyme

In the case of Cc1c(C)c(O)c2ccccc2c1O [DMWH2, 2,3-dimethyl-[1,4]naphthohydroquinone], the “Clark-type electrode oxygen consumption, purified enzyme turnover (100 μM substr)” value [1] is reported as 91 ± 4 e^-/s.

In the case of Cc1cc(O)c2ccccc2c1O [menadiol, 2-methyl-[1,4]naphthohydroquinone], the “Clark-type electrode oxygen consumption, purified enzyme” value [2] is reported as “CIII2CIV2 activity is greater with DMWH2 green curve, than with menadiol brown curve”.

Compound CCc1nc2ccc(Cl)cn2c1C(=O)NCc1ccc(N2CCC(c3ccc(OC(F)(F)F)cc3)CC2)cc1 [telacebec] has an IC50 [3] of 53 ± 19 nM.
